# Like-named read-outs stand apart in the source and are kept apart here.
# Tests used:
# [1] = tested on: primary melanomas (M715, M711, M741 and M405); assay: Dose response viability assay (CellTiter-Glo) on primary human melanoma cells; format: cell-based; details: 72 hr, triplicate
# Method: (§1) Melanomas and hUCB were treated with 50 μM of cardiac glycosides or DMSO for 72 h in triplicates. Viability was measured with CellTiter-Glo. […] All error bars denote SD.
# (§2) In these in vitro assays, cells were treated with various doses of cardiac glycosides or DMSO for 72 hr in triplicate. Viability was measured with CellTiter-Glo.
# (§3) Again, cells were treated in vitro with various doses of RO 31-8220 or DMSO for 72 hr in triplicates. Viability was measured with CellTiter-Glo.
# [2] = tested on: human melanocytes (hMEL) and human umbilical cord blood cells (hUCB)
# Method: as §1, §2, §3
# [3] = target: T1, WT Bcr-Abl (Homo sapiens, UniProt P00519); details: read-out: IC50, Bcr-Abl autophosphorylation and downstream kinase activity; K562 cells; cited from earlier work
# Target sequence in this assay (P00519 with tags, fused parts or gaps): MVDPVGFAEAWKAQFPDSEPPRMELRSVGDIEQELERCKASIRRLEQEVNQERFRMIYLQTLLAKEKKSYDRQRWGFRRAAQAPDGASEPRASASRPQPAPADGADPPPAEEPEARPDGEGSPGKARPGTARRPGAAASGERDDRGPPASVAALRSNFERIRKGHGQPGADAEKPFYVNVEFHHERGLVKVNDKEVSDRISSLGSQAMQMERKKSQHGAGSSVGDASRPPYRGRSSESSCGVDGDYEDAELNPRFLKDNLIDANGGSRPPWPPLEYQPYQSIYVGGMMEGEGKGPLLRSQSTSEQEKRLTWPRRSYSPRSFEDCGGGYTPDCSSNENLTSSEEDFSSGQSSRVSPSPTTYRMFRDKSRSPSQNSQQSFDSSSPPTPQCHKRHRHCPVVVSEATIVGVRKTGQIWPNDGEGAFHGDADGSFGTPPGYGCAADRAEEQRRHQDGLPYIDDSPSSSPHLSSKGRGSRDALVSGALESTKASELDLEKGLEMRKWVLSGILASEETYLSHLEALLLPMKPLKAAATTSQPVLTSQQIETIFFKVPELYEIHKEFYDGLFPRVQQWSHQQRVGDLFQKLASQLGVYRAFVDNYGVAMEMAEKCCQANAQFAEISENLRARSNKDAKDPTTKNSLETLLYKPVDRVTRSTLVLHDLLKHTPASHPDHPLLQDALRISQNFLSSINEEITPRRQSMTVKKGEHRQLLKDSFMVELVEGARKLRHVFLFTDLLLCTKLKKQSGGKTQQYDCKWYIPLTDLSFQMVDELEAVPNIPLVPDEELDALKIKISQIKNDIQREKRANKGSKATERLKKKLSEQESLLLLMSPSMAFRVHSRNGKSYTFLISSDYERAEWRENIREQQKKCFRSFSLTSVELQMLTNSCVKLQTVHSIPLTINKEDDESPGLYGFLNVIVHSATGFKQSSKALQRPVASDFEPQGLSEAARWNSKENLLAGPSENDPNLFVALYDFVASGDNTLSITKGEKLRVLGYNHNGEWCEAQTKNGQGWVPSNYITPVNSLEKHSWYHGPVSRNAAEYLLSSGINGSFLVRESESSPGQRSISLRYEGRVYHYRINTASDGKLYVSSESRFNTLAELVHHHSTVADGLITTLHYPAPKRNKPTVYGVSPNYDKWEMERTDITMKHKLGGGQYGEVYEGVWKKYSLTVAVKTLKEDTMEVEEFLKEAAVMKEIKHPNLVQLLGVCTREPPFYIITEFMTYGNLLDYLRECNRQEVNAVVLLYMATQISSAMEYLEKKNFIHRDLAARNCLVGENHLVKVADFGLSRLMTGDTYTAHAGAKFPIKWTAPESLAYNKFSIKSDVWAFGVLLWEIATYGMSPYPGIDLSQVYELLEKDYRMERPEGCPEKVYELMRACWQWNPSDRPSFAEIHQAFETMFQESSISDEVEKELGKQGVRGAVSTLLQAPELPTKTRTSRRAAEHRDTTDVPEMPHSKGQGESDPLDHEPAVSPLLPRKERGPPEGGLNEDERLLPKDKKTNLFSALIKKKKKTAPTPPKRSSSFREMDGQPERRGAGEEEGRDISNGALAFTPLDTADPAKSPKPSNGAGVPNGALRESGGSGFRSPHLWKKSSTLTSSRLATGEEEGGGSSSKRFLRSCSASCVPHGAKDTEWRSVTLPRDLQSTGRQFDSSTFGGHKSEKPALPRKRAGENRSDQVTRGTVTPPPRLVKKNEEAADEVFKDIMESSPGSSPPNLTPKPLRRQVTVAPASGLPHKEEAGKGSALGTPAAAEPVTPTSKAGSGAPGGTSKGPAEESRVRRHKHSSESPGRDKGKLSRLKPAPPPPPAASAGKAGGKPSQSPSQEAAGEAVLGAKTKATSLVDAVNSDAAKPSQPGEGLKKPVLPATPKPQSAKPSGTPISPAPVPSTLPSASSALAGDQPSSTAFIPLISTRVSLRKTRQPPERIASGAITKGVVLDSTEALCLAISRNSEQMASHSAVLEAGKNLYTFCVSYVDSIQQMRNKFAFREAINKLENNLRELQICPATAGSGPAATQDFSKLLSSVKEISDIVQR
# [4] = target: T1, WT Bcr-Abl; details: read-out: IC50, Bcr-Abl autophosphorylation and downstream kinase activity; 293T cells; cited from earlier work
# Target sequence in this assay (P00519 28-1130 limits assumed): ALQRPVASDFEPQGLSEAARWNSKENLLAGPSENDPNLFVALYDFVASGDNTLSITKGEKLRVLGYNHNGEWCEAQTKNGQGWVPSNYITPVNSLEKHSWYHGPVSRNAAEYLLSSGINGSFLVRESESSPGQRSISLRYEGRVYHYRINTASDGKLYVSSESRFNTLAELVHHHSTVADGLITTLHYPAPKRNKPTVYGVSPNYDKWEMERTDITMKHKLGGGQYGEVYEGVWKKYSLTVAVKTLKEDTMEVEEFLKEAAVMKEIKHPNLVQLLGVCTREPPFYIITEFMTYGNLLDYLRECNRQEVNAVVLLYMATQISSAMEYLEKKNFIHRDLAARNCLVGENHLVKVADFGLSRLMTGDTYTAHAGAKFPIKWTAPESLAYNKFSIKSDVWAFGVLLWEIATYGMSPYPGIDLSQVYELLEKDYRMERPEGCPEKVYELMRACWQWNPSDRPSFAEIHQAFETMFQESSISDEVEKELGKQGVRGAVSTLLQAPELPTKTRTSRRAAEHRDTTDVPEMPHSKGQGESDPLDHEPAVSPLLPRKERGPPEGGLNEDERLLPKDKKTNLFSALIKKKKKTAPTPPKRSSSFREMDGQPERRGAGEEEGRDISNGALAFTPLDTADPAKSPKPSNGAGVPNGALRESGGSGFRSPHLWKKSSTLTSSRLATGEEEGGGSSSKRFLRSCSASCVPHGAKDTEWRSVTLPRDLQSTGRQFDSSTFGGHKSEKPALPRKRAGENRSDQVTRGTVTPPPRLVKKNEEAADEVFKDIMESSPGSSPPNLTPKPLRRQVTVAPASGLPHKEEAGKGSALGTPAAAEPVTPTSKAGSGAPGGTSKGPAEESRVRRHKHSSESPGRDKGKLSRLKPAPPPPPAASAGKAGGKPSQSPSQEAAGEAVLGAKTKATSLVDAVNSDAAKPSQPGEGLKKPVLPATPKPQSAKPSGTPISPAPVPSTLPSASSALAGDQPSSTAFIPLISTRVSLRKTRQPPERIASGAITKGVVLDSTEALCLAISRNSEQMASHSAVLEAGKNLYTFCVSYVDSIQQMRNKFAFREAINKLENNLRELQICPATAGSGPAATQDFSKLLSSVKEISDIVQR
# [5] = mouse, in vivo; cited from earlier work
# [6] = tested on: KU812; details: 20 mg/kg/day; cited from earlier work
# [7] = in vivo; cited from earlier work
# [8] = tested on: JNK, glycogen synthase, MAPK, ERK2; details: rat adipocytes and L6 myotubes; cited from earlier work
# [9] = target: PKCα (Homo sapiens, UniProt P17252); details: cited from earlier work
# [10] = tested on: voltage-dependent Na+ channels; details: cited from earlier work
# [11] = target: S6K1 (Homo sapiens, UniProt P23443); details: cited from earlier work
# Sequence of S6K1 (P23443 whole entry, species assumed): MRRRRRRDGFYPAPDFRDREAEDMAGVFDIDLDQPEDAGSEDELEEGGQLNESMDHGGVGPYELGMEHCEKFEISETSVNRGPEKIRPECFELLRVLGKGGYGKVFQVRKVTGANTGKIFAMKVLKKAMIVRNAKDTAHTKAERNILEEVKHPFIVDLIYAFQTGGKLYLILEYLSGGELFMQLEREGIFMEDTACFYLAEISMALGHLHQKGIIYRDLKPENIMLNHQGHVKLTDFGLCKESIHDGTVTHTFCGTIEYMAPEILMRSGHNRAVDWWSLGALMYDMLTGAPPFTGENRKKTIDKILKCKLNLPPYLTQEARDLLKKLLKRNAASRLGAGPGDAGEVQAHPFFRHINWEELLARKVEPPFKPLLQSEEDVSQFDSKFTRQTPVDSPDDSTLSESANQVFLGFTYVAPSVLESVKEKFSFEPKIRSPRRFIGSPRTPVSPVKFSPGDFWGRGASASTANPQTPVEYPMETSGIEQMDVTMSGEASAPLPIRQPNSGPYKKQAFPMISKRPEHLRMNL
# [12] = target: MAPKAP-K1b (Homo sapiens, UniProt P51812); details: cited from earlier work
# Sequence of MAPKAP-K1b (P51812 whole entry, species assumed): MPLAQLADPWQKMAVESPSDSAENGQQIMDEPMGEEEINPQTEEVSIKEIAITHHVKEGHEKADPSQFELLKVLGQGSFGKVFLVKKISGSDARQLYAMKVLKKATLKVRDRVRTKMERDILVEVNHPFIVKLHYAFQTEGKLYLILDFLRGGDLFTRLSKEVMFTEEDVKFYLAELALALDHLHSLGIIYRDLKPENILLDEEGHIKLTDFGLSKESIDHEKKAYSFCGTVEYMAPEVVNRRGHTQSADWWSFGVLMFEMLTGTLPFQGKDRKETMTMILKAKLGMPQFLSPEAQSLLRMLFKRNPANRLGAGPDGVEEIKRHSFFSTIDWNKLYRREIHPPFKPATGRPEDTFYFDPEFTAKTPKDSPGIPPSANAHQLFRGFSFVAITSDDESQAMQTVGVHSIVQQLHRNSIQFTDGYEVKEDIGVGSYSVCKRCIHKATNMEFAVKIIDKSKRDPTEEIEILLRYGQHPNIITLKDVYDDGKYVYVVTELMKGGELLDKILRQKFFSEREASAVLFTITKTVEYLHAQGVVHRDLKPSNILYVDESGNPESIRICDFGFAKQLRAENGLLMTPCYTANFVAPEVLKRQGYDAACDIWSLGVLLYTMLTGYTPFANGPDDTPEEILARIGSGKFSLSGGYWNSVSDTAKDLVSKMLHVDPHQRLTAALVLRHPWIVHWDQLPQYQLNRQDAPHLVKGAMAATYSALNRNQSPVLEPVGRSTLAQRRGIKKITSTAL
# [13] = tested on: M481 metastatic melanoma cells; assay: M481 melanoma xenograft tumor growth in NSG mice; format: in vivo
# Method: M481 metastatic melanoma cells were implanted in s.c. tissue on right flanks of NSG mice. […] Tumors were measured every 2-3 day with calipers.
# (FIG. 6A) M481 efficiently metastasizing melanoma cells were implanted in s.c. tissue on right flanks of NSG mice. […] Tumors were measured every 2-3 day with calipers. Mean±SD is reported.
# Subcutaneous injections of human melanoma cells were performed in each flank and the interscapular region of NOD.CB17-Prkdcscid Il2rgtm1Wjl/SzJ (NOD/SCID IL2Rγ^null, NSG) mice (Jackson Laboratories) in a final volume of 50 μl.
# In these experiments metastatic melanoma cells were implanted in s.c. tissue on right flanks of NSG mice. […] Tumors were measured every 2-3 day with calipers and bioluminescence imaging was performed at day 14.
# To address whether inhibition of Lyn kinase can block the ability of melanoma cells to grow in our xenograft model, they performed an in vivo drug treatment. NSG mice were injected with a 100-cell dose of a metastatic melanoma, M481, which expressed a GFP-luciferase construct. […] We tested two different doses, 4 mg/kg body mass/day and 20 mg/kg/day. Control mice were injected with 5% DMSO solution.
# [14] = tested on: M214 metastatic melanoma cells; format: in vivo, NSG mice; details: digitoxin 0.5 mg/kg/day; dacarbazine 5 mg/kg every other day; alone or in combination
# Method: M214 metastatic melanoma cells were implanted in s.c. tissue on right flanks of NSG mice. When tumors became palpable, mice were randomized to four different treatments. […] Control mice received equivalent volume of DMSO. […] Tumors were measured every 2-3 day with calipers. Mean^±SD is reported (*P<0.05, **P<0.005, ***P<0.0005, ****P<0.0001, ns: not significant; two-tailed Student's t test). […] The statistical significance of differences between mean values was assessed by the Student's t-test.
# In these experiments, metastatic melanoma cells were injected subcutaneously in the right flanks of immunocompromised NSG mice. When tumors became palpable, mice were randomized to four different treatments. […] Control mice received equivalent volume of DMSO.
# [15] = 72 hr, triplicate, CellTiter-Glo
smiles,measurement,setting,value
C[C@H]1O[C@@H](O[C@H]2[C@@H](O)C[C@H](O[C@H]3[C@@H](O)C[C@H](O[C@H]4CC[C@@]5(C)[C@H](CC[C@@H]6[C@@H]5CC[C@]5(C)[C@@H](C7=CC(=O)OC7)[C@@H](O)C[C@]65O)C4)O[C@@H]3C)O[C@@H]2C)C[C@H](O)[C@@H]1O [gitoxin],toxicity to primary melanomas (viability),[1],toxic to all tested primary melanomas
same,toxicity to normal cells (viability),[2]; [15],not to normal cells
"Cc1ccc(NC(=O)c2ccc(CN3CC[C@H](N(C)C)C3)c(C(F)(F)F)c2)cc1Nc1nccc(-c2cncnc2)n1 [Bafetinib, bafetinib]",IC50,[3],11 nM
same,IC50,[4],22 nM
same,bioavailability value (BA),[5],32%
same,maximal tolerated dose,[5],200 mg/kg/day
same,adverse effects,[6],without adverse effects
C[C@H]1O[C@@H](O[C@H]2[C@@H](O)C[C@H](O[C@H]3[C@@H](O)C[C@H](O[C@H]4CC[C@@]5(C)[C@H](CC[C@@H]6[C@@H]5C[C@@H](O)[C@]5(C)[C@@H](C7=CC(=O)OC7)CC[C@]65O)C4)O[C@@H]3C)O[C@@H]2C)C[C@H](O)[C@@H]1O [digoxin],toxicity to primary melanomas (viability),[1],toxic to all tested primary melanomas
same,half-life,[7],about 36 hours
same,plasma concentration at which adverse effects are rare,[7],< 0.8 ng/mL
same,toxicity to normal cells (viability),[2],not to normal cells
Cn1cc(C2=C(c3cn(CCCSC(=N)N)c4ccccc34)C(=O)NC2=O)c2ccccc21 [RO 31-8220],effect on JNK and glycogen synthase,[8],Activates
same,effect on MAPK and ERK2,[8],inhibits
same,toxicity to primary melanomas (viability),[1],toxic to all tested primary melanomas
same,IC50,[9],33 nM
same,inhibition of voltage-dependent Na+ channels,[10],in the micromolar range
same,IC50,[11],38 nM
same,IC50,[12],3 nM
same,toxicity to normal cells (viability),[2]; [15],not to normal cells
same,tumor growth,[13]; RO 31-8220 3 mg/kg i.p. vs DMSO,inhibited the growth
C[C@H]1O[C@@H](O[C@H]2[C@@H](O)C[C@H](O[C@H]3[C@@H](O)C[C@H](O[C@H]4CC[C@@]5(C)[C@H](CC[C@@H]6[C@@H]5CC[C@]5(C)[C@@H](C7=CC(=O)OC7)CC[C@]65O)C4)O[C@@H]3C)O[C@@H]2C)C[C@H](O)[C@@H]1O [digitoxin],toxicity to primary melanomas (viability),[1],toxic to all tested primary melanomas
same,growth of human melanoma xenografts,[14],slowed the growth
same,toxicity to normal cells (viability),[2]; [15],not to normal cells
same,tumor growth,[13]; digitoxin 0.5 mg/kg i.p. vs DMSO,inhibited the growth
